In PMC7995636 (Bioorganic & medicinal chemistry, 2021):
Values belong to the compound of their own block, whether it stands above or below them.

Legend:
Bovine brain tubulin = Bovine brain tubulin (Bos taurus, UniProt Q6B856); test: Inhibition of tubulin assembly; type: biochemical
HeLa cells = test: SRB assay, HeLa; type: cell-based; conditions: Homo sapiens, read-out: IC50 ± SD in HeLa
HeLa WT-βIII cells = test: SRB assay, HeLa WT-βIII; type: cell-based; conditions: Homo sapiens, read-out: IC50 ± SD in WT βIII
PDGFR-β = PDGFR-β (Homo sapiens, UniProt P09619); test: Phosphotyrosine ELISA, PDGFR-β kinase inhibition; type: cell-based; conditions: compared to 1
PDGFR-β, sequence (P09619 33-1106): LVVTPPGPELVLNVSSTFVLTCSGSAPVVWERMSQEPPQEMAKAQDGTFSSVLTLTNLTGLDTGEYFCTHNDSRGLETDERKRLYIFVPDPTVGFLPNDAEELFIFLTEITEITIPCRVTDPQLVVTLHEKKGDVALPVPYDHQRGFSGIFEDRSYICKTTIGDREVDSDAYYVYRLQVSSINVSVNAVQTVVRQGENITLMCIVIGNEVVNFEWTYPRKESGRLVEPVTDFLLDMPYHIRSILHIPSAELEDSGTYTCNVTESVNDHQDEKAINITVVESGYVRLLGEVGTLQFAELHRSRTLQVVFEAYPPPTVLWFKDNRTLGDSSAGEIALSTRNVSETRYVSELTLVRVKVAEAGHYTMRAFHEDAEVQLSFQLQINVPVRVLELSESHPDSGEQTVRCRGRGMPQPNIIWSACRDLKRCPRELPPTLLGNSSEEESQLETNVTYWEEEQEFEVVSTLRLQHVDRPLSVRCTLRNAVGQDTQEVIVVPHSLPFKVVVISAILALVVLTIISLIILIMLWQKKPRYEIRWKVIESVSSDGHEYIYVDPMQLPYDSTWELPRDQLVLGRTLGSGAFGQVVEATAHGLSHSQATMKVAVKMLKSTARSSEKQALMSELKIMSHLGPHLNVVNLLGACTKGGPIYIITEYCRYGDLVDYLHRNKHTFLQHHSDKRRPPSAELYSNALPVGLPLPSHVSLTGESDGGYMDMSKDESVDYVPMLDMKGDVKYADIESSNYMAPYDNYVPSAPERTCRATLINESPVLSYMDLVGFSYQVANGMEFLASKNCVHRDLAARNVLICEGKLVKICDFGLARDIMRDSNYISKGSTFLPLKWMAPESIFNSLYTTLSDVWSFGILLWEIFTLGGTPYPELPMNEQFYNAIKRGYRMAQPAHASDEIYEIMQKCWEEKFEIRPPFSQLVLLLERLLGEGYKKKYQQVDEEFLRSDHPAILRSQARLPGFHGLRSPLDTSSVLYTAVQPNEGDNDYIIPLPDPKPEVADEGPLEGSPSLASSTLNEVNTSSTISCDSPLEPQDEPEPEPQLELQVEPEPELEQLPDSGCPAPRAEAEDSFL

P-glycoprotein (Pgp) = conditions: cited from earlier work
[1] = tested on: breast cancer resistance protein (BCRP1); conditions: cited from earlier work
[2] = higher in brain; cited from earlier work

Bovine brain tubulin, sequence (Q6B856 whole entry): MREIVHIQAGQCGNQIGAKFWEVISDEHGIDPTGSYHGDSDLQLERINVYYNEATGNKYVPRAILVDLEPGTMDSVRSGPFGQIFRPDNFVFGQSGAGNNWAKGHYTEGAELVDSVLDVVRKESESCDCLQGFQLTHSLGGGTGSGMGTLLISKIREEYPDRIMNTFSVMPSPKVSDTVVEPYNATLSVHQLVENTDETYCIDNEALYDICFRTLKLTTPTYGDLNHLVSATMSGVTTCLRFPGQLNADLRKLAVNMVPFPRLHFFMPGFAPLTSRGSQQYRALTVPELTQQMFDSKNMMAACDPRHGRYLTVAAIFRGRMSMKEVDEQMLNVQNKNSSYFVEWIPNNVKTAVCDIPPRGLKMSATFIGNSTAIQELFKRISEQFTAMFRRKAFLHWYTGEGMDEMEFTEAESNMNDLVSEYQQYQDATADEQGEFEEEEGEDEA
Bovine brain tubulin, sequence (P81947 whole entry partner): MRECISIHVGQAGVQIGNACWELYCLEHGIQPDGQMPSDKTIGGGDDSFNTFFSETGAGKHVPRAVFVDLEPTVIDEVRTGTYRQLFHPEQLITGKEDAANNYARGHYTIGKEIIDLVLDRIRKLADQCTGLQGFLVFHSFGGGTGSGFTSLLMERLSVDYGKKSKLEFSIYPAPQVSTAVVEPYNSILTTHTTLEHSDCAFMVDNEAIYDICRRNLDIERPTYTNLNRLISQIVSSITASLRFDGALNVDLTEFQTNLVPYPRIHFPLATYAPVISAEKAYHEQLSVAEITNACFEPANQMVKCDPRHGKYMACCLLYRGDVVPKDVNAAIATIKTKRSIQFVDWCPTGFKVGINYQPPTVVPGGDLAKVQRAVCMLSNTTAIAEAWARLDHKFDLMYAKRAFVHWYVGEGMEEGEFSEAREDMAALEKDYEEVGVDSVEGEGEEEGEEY

Structure (SMILES): CC(=O)O[C@H]1C(=O)[C@@]2(C)[C@H]([C@H](OC(=O)c3ccccc3)[C@]3(O)C[C@H](OC(=O)[C@H](O)[C@@H](NC(=O)c4ccccc4)c4ccccc4)C(C)=C1C3(C)C)[C@]1(OC(C)=O)CO[C@@H]1C[C@@H]2O [Paclitaxel]
- IC50 (HeLa cells): 2.8 ± 0.4 nM
- IC50 (HeLa WT-βIII cells): 24 ± 0.2 nM

Structure (SMILES): COc1ccc(N(C)c2nc(C)nc3ccccc23)cc1 [Compound 1, N-(4-Methoxyphenyl)-N,2-dimethylquinazolin-4-amine]
- substrate for P-glycoprotein (Pgp) (P-glycoprotein (Pgp)): not a substrate
- substrate for breast cancer resistance protein (BCRP1) [1]: not a substrate
- concentrations in the brain compared to the plasma [2]: 30 fold

More lines, now with the values ahead:

- IC50 (Bovine brain tubulin): 470 ± 20 nM
Structure (SMILES): COc1ccc(N(C)c2nc(Cl)nc3ccccc23)cc1 [Compound 8, 2-Chloro-N-(4-methoxyphenyl)-N-methylquinazolin-4-amine]

- fold loss of potency with PDGFR-β (PDGFR-β): ~ 5 fold
- IC50 (Bovine brain tubulin): 640 ± 10 nM
Structure (SMILES): COc1cccc2cc(N(C)c3nc(C)nc4ccccc34)ccc12 [Compound 4, N-(5-Methoxynaphthalen-2-yl)-N,2-dimethylquinazolin-4-amine]

- IC50 (Bovine brain tubulin): 480 ± 70 nM
Structure (SMILES): CSc1ccc(N(C)c2nc(C)nc3ccccc23)cc1 [Compound 3, N,2-Dimethyl-N-(4-(methylthio)phenyl)quinazolin-4-amine]
